Data from ChEMBL document CHEMBL1201862, “PubChem BioAssay data set” (2004).
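Where inhibition never reached the appropriate level, the endpoint shown equals the highest concentration tested. Otherwise, values were interpolated linearly from a five-concentration, 48-hour dose response in 96-well plates. GI50 = concentration required for 50% inhibition of growth.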 Active and inactive are the calls of the source. No stated cut-off is given here; in the data, active = GI50 up to about 1.1 µM and inactive = higher.

What was measured:
Test in all cases: NCI-60 cell line screen, 48 h
HCT-116 = test system: HCT-116
IGROV-1 = test system: IGROV-1
SK-MEL-28 = test system: SK-MEL-28
U-251 = test system: U-251
KM12 = test system: KM12
A498 = test system: A498
HCC 2998 = test system: HCC 2998
NCI-H23 = test system: NCI-H23
OVCAR-5 = test system: OVCAR-5
UO-31 = test system: UO-31
UACC-257 = test system: UACC-257
LOX IMVI = test system: LOX IMVI
HOP-92 = test system: HOP-92
OVCAR-8 = test system: OVCAR-8
A549 = test system: A549
SF-539 = test system: SF-539

Measured: GI50

COC(=O)C(CC(C)=O)CS(=O)(=O)CC(=O)C(=O)Nc1cccc([N+](=O)[O-])c1 (configuration not stated)
inactive: HCT-116 > 100 µM | IGROV-1 > 100 µM | SK-MEL-28 > 100 µM | U-251 > 100 µM | KM12 > 100 µM | A498 > 100 µM | HCC 2998 > 100 µM | NCI-H23 > 100 µM | OVCAR-5 > 100 µM | UO-31 > 100 µM | UACC-257 > 100 µM | LOX IMVI > 100 µM | HOP-92 > 100 µM | OVCAR-8 > 100 µM | A549 > 100 µM | SF-539 > 100 µM

CCOC(=O)c1ncn2c1[nH]c(=O)c1ccccc12
inactive: HCT-116 > 100 µM | IGROV-1 > 100 µM | SK-MEL-28 > 100 µM | U-251 > 100 µM | KM12 > 100 µM | NCI-H23 > 100 µM | OVCAR-5 > 100 µM | UO-31 > 100 µM | LOX IMVI > 100 µM | OVCAR-8 > 100 µM | A549 > 100 µM | SF-539 > 100 µM

COC1OC(C)C(OC(=O)C(C)(C)C)C(C)(O)C1O (configuration not stated)
inactive: HCT-116 > 100 µM | IGROV-1 > 100 µM | SK-MEL-28 > 100 µM | U-251 > 100 µM | KM12 > 100 µM | A498 > 100 µM | HCC 2998 > 100 µM | NCI-H23 > 100 µM | OVCAR-5 > 100 µM | UACC-257 > 100 µM | LOX IMVI > 100 µM | HOP-92 > 100 µM | OVCAR-8 > 100 µM | A549 > 100 µM | SF-539 > 100 µM

Cc1nc2c(n1CC(C)C)C(=O)c1ccccc1C2=O
inactive: HCT-116 20.8 µM | IGROV-1 32.6 µM | SK-MEL-28 67.9 µM | U-251 38.6 µM | KM12 37.9 µM | HCC 2998 71.4 µM | NCI-H23 18 µM | UO-31 26.5 µM | UACC-257 17.7 µM | LOX IMVI 29.3 µM | HOP-92 10.4 µM | OVCAR-8 35.5 µM | A549 32.9 µM | SF-539 24.8 µM

O=C1OC(=O)C2C3CCC(O3)C12 (configuration not stated)
inactive: HCT-116 > 100 µM | IGROV-1 > 100 µM | SK-MEL-28 > 100 µM | U-251 > 100 µM | KM12 > 100 µM | A498 > 100 µM | HCC 2998 > 100 µM | NCI-H23 > 100 µM | OVCAR-5 > 100 µM | UO-31 > 100 µM | UACC-257 > 100 µM | HOP-92 > 100 µM | OVCAR-8 > 100 µM | A549 > 100 µM | SF-539 > 100 µM

COc1ccc(NS(=O)(=O)c2ccc(/N=C3\C=C(Nc4ccc(S(=O)(=O)Nc5ccc(OC)nn5)cc4)C(=O)c4ccccc43)cc2)nn1
inactive: HCT-116 17.5 µM | IGROV-1 23.9 µM | SK-MEL-28 17.5 µM | U-251 18 µM | KM12 16.7 µM | A498 15.3 µM | HCC 2998 19.6 µM | NCI-H23 16.2 µM | OVCAR-5 19.1 µM | UO-31 19.7 µM | UACC-257 16.9 µM | LOX IMVI 16.7 µM | HOP-92 31 µM | OVCAR-8 17.2 µM | A549 17.9 µM | SF-539 17.7 µM

O=C(c1ccc(Cl)cc1)c1ccc(OCC(=O)N2CCN(c3ccccc3)CC2)cc1
inactive: HCT-116 > 100 µM | IGROV-1 > 100 µM | SK-MEL-28 > 100 µM | U-251 > 100 µM | KM12 > 100 µM | A498 32.1 µM | HCC 2998 > 100 µM | NCI-H23 53.7 µM | OVCAR-5 > 100 µM | UO-31 > 100 µM | UACC-257 61 µM | LOX IMVI > 100 µM | HOP-92 > 100 µM | OVCAR-8 > 100 µM | A549 > 100 µM | SF-539 > 100 µM

CC1=NN=C(NCCN(C)C)C/C1=C/c1ccccc1Cl
inactive: HCT-116 > 100 µM | IGROV-1 > 100 µM | SK-MEL-28 59.2 µM | U-251 > 100 µM | KM12 > 100 µM | A498 > 100 µM | HCC 2998 > 100 µM | NCI-H23 > 100 µM | OVCAR-5 79.1 µM | UO-31 > 100 µM | UACC-257 23.5 µM | LOX IMVI 90.6 µM | OVCAR-8 > 100 µM | A549 > 100 µM | SF-539 > 100 µM

COC(=O)C(CCCC1(c2ccccc2)OCCO1)C(C)=O (configuration not stated)
inactive: HCT-116 > 100 µM | IGROV-1 > 100 µM | SK-MEL-28 > 100 µM | U-251 > 100 µM | KM12 > 100 µM | A498 > 100 µM | HCC 2998 > 100 µM | NCI-H23 > 100 µM | OVCAR-5 > 100 µM | UO-31 > 100 µM | UACC-257 90.2 µM | LOX IMVI > 100 µM | OVCAR-8 > 100 µM | A549 > 100 µM | SF-539 > 100 µM

CC(C(=O)n1c2ccccc2c2ccccc21)N(c1ccccc1)c1ccccc1 (configuration not stated)
inactive: HCT-116 18.7 µM | IGROV-1 18.3 µM | SK-MEL-28 19.1 µM | U-251 17.8 µM | HCC 2998 16.3 µM | NCI-H23 18.9 µM | OVCAR-5 18.4 µM | UO-31 20.6 µM | UACC-257 17.9 µM | LOX IMVI 16.7 µM | OVCAR-8 18.6 µM | A549 20.4 µM | SF-539 19.2 µM

CC1=C(C(=O)Nc2ccccc2)C(c2ccc([N+](=O)[O-])cc2)C(C(=O)Nc2ccccc2)=C(C)N1
inactive: HCT-116 18.5 µM | IGROV-1 28.6 µM | SK-MEL-28 31.5 µM | U-251 17.4 µM | KM12 15.8 µM | A498 26.2 µM | HCC 2998 20.2 µM | NCI-H23 17 µM | OVCAR-5 40.9 µM | UO-31 22.4 µM | UACC-257 18.5 µM | LOX IMVI 15.2 µM | HOP-92 17.9 µM | OVCAR-8 17.3 µM | A549 34 µM | SF-539 20.7 µM

Cc1cc2c(cc1C)[n+]([O-])c(-c1c(Cl)cccc1Cl)c(N)[n+]2[O-]
inactive: IGROV-1 41.3 µM | SK-MEL-28 28.2 µM | U-251 33.3 µM | KM12 37.2 µM | A498 26.2 µM | HCC 2998 25.8 µM | NCI-H23 24.1 µM | OVCAR-5 > 100 µM | UO-31 30.3 µM | UACC-257 24.6 µM | LOX IMVI 44.7 µM | HOP-92 > 100 µM | OVCAR-8 38.8 µM | A549 30.1 µM | SF-539 27.9 µM

Cc1ccc(C)c(N2C(=O)C(=O)C(c3nc4ccccc4o3)/C(=N/N)C2=O)c1 (configuration not stated)
inactive: HCT-116 > 100 µM | IGROV-1 > 100 µM | SK-MEL-28 > 100 µM | U-251 > 100 µM | KM12 > 100 µM | A498 > 100 µM | HCC 2998 > 100 µM | NCI-H23 > 100 µM | UO-31 > 100 µM | UACC-257 > 100 µM | HOP-92 > 100 µM | OVCAR-8 > 100 µM | A549 > 100 µM | SF-539 > 100 µM

Nc1nc(N)c(N=O)c(Nc2ccc(Br)cc2)n1
inactive: HCT-116 13.3 µM | IGROV-1 3.46 µM | SK-MEL-28 16.6 µM | U-251 15.9 µM | KM12 33.8 µM | A498 17.6 µM | HCC 2998 78.9 µM | NCI-H23 23.4 µM | OVCAR-5 31.2 µM | UACC-257 15.6 µM | LOX IMVI 18.2 µM | HOP-92 15.4 µM | OVCAR-8 27.2 µM | A549 41.9 µM | SF-539 16.9 µM

O=C1C=C(c2c(O)ccc3ccccc23)c2cc(O)ccc2C1=O
inactive: HCT-116 16 µM | IGROV-1 13.7 µM | SK-MEL-28 20.7 µM | U-251 14.8 µM | KM12 16.1 µM | HCC 2998 18.6 µM | NCI-H23 15.1 µM | OVCAR-5 21.1 µM | UO-31 19.6 µM | UACC-257 17.9 µM | LOX IMVI 11.5 µM | HOP-92 16.1 µM | OVCAR-8 11.4 µM | A549 18.2 µM | SF-539 16.2 µM

COc1ccc(/C=C/C(=O)c2c(-c3ccccc3)nn(C)c(=O)c2N2CC2C)cc1 (configuration not stated)
inactive: HCT-116 36.1 µM | IGROV-1 59.3 µM | SK-MEL-28 52.6 µM | U-251 27.9 µM | KM12 30.3 µM | A498 23.9 µM | HCC 2998 26.6 µM | NCI-H23 19 µM | OVCAR-5 37.6 µM | UO-31 70.3 µM | UACC-257 42.2 µM | LOX IMVI 16.3 µM | HOP-92 29 µM | OVCAR-8 32.4 µM | A549 43.2 µM | SF-539 39.1 µM

CS/C(=N\C(=S)Nc1ccccc1)Nc1ccccc1
inactive: HCT-116 > 10 µM | IGROV-1 16.4 µM | SK-MEL-28 15 µM | U-251 19.8 µM | KM12 25.6 µM | A498 21.9 µM | HCC 2998 21.7 µM | NCI-H23 29.4 µM | OVCAR-5 23.6 µM | UO-31 11.6 µM | UACC-257 > 10 µM | LOX IMVI 16.7 µM | OVCAR-8 25.4 µM | A549 16.5 µM | SF-539 > 10 µM

C/C=C(/I)CBr
inactive: HCT-116 13.9 µM | IGROV-1 16 µM | SK-MEL-28 21 µM | U-251 > 10 µM | A498 > 10 µM | HCC 2998 15.9 µM | NCI-H23 16.7 µM | OVCAR-5 > 10 µM | UO-31 18.9 µM | LOX IMVI 16.2 µM | HOP-92 15.3 µM | OVCAR-8 19.4 µM | A549 24.3 µM | SF-539 17 µM
